This note sets out measurements from patent publication US12564190B2, “Biobased herbicide enhancer agent and method for using the same” (priority 2021, dated 2026).

Holding throughout (type): in vivo
One experiment deals with Lemna minor. The experiment is described as follows: Herbicide activity on Lemna minor in vitro, fresh weight reduction after one week. Particulars: fresh weight reduction compared to untreated plants, 7-day exposure, all chemicals 10 mg/L. As to the method:
The experiment was carried out in Lemna minor growing in vitro conditions. Lemna minor (duckweed) was bought in the local market. A stock culture was maintained on modified Hoagland medium in a controlled environment. The pH of the medium was adjusted to 6.0, and the plants were grown under static conditions in a plant growth chamber at 25±2° C., light/dark regime of 16 h/8 h.
For the experiments, fronds free from any visible chlorosis were taken from the stock cultures and exposed to the appropriate treatment. For each treatment, we used six repetitions with three fronds per repetition as the initial frond number. Individual fronds were transferred to a 12 well multiplate containing Hoagland medium (control), Hoagland medium containing polyferulates, herbicides or the combination as shown in Table 9. All chemicals were evaluated at the same concentration (10 mg/L). The multiplate was covered with a transparent cover to prevent evaporation. The herbicide activity was evaluated as fresh weight reduction compared to untreated plants after one week of incubation in the described conditions.

The next experiment concerns potato plants. The experiment is described as follows: Desiccation of potato plants, field plots, visual evaluation 15 days after treatment. Particulars: three herbicides tested. From the text:
The desiccant was applied by spraying.

Another experiment concerns Echinochloa colona. The experiment is described as follows: Herbicide activity on Echinochloa colona plants, visual evaluation 20 days after treatment. Particulars: E. colona, 20 DAT, application rate 110 g a.i. ha^−1. From the text:
Echinochloa colona is a cosmopolitan weed common in crops (mainly rice, maize and vegetables), gardens, roadsides, disturbed sites, waste areas and pastures. It also grows along waterways, on the margins of lakes and ponds, in swamps and wetlands, and in other damp habitats. It has the potential to invade natural areas and completely outcompete native vegetation. This weed pose a significant threat to rice productivity globally and are usually reported as noxious weeds in several economically important crops around the world. E. colona has vigorous growth traits and high seed production since each E. colona plant can produce up to 42,000 seeds. The experiment in Echinochloa colona plants was carried out in independent pots and in four replications. […] The products were applied by spraying. The herbicide activity was visually evaluated 20 days after treatment.

Turning to `COC(=O)Nc1cccc(OC(=O)Nc2cccc(C)c2)c1` [Phenmedipham], in the experiment on Lemna minor, the Herbicide activity amounted to 3%.

As for `CCOC1Oc2ccc(OS(C)(=O)=O)cc2C1(C)C` (stereo not shown) [Ethofumesate], in the experiment with Lemna minor, the Herbicide activity was 0%.

Regarding `COC(=O)c1cccc(C)c1S(=O)(=O)NC(=O)Nc1nc(OCC(F)(F)F)nc(N(C)C)n1` [Triflusulfuron-methyl], the Herbicide activity in the experiment with Lemna minor is 34%.

As to Diferulic acid, the “Effect in combination with the herbicides tested (synergism or antagonism according to Colby)” value in the experiment on potato plants is “antagonist”.

In the case of `COc1cc(/C=C/C(=O)O)ccc1O` [Ferulic acid, (2E)-3-(4-hydroxy-3methoxyphenyl) prop-2-enoic acid], the “Effect in combination with the herbicides tested (synergism or antagonism according to Colby)” value in the experiment with potato plants is recorded as “antagonist”.

In the case of `CCCC(=NOCC(C)Oc1ccc(Cl)cc1)C1=C(O)CC(C2CCCSC2)CC1=O` (stereo not shown) [Profoxydim], the Herbicide activity was 34 with Echinochloa colona and 45% in the experiment on Lemna minor.
